Results as given in ChEMBL document CHEMBL3885861, “Open TG-GATES”.

Species: Rattus norvegicus
Test: Open TG-GATES - Regimen: Single
Assay type: toxicity, organism-based, Sprague-Dawley
Parameters: regimen Single, gender Male, age 6 weeks
Settings: in vivo, po, 300 mg/kg, route gavage, dose level Middle; for APTT / Bas / Eos / Fbg / Hb / Ht / Lym / MCH / MCHC / MCV / Mono / Neu / PT / Plat / RBC / Ret / WBC: tissue Blood; for KIDNEY_L / KIDNEY_R / KIDNEY_TOTAL: tissue Kidney; for LIVER: tissue Liver; for A/G / ALP / ALT / AST / BUN / CRE / Ca / Cl / DBIL / GLC / IP / LDH / Na / PL / RALB / TBIL / TC / TG / TP / gamma-GTP: tissue Plasma

## NC(N)=Nc1nc(CSCCC(N)=NS(N)(=O)=O)cs1 [FAMOTIDINE]
3 h
  TERMINAL_BW: 215.2 g
  APTT: 21.3 s
  Bas: 0%
  Eos: 1%
  Fbg: 213.2 mg/dL
  Hb: 13.4 g/dL
  Ht: 37.9%
  Lym: 76.2%
  MCH: 22.4 pg
  MCHC: 35.3%
  MCV: 63.4 fL
  Mono: 2.8%
  Neu: 17.8%
  PT: 12.6 s
  Plat: 116.7 x10_4/uL
  RBC: 598 x10_4/ul
  Ret: 7.6%
  WBC: 82 x10_2/uL
  KIDNEY_L: 1 g
  KIDNEY_R: 1 g
  KIDNEY_TOTAL: 1.9 g
  LIVER: 10.1 g
  A/G: 1.6
  ALP: 814.6 IU/L
  ALT: 34.2 IU/L
  AST: 66.4 IU/L
  BUN: 9.6 mg/dL
  CRE: 0.4 mg/dL
  Ca: 10.6 mg/dL
  Cl: 104.2 meq/L
  DBIL: 0.07 mg/dL
  GLC: 197.8 mg/dL
  IP: 9 mg/dL
  LDH: 230 IU/L
  Na: 140.8 meq/L
  PL: 146 mg/dL
  RALB: 3.4 g/dL
  TBIL: 0.1 mg/dL
  TC: 77.2 mg/dL
  TG: 69.4 mg/dL
  TP: 5.5 g/dL
  gamma-GTP: 1.2 IU/L
6 h
  TERMINAL_BW: 211.7 g
  APTT: 18.9 s
  Bas: 0%
  Eos: 1%
  Fbg: 204.6 mg/dL
  Hb: 13.5 g/dL
  Ht: 37.8%
  Lym: 75%
  MCH: 22.3 pg
  MCHC: 35.6%
  MCV: 62.7 fL
  Mono: 2.4%
  Neu: 18.4%
  PT: 12.8 s
  Plat: 109.6 x10_4/uL
  RBC: 604.4 x10_4/ul
  Ret: 7.4%
  WBC: 97.9 x10_2/uL
  KIDNEY_L: 1 g
  KIDNEY_R: 0.9 g
  KIDNEY_TOTAL: 1.9 g
  LIVER: 9 g
  A/G: 1.6
  ALP: 896.8 IU/L
  ALT: 32.8 IU/L
  AST: 66.8 IU/L
  BUN: 8.4 mg/dL
  CRE: 0.4 mg/dL
  Ca: 10.4 mg/dL
  Cl: 103.8 meq/L
  DBIL: 0.07 mg/dL
  GLC: 195 mg/dL
  IP: 9 mg/dL
  LDH: 177.2 IU/L
  Na: 140.8 meq/L
  PL: 131.2 mg/dL
  RALB: 3.2 g/dL
  TBIL: 0.1 mg/dL
  TC: 73.2 mg/dL
  TG: 46.2 mg/dL
  TP: 5.2 g/dL
  gamma-GTP: 2 IU/L
9 h
  TERMINAL_BW: 209.6 g
  APTT: 18.9 s
  Bas: 0%
  Eos: 0.8%
  Fbg: 225.4 mg/dL
  Hb: 13.4 g/dL
  Ht: 37.4%
  Lym: 76.8%
  MCH: 22.3 pg
  MCHC: 35.7%
  MCV: 62.3 fL
  Mono: 2.4%
  Neu: 19.2%
  PT: 12.1 s
  Plat: 117.6 x10_4/uL
  RBC: 601.6 x10_4/ul
  Ret: 7.2%
  WBC: 77.6 x10_2/uL
  KIDNEY_L: 0.9 g
  KIDNEY_R: 1 g
  KIDNEY_TOTAL: 1.9 g
  LIVER: 8.7 g
  A/G: 1.6
  ALP: 898 IU/L
  ALT: 26.6 IU/L
  AST: 59 IU/L
  BUN: 10 mg/dL
  CRE: 0.4 mg/dL
  Ca: 10.3 mg/dL
  Cl: 103.6 meq/L
  DBIL: 0.064 mg/dL
  GLC: 195.2 mg/dL
  IP: 8.8 mg/dL
  LDH: 125 IU/L
  Na: 140.2 meq/L
  PL: 130 mg/dL
  RALB: 3.3 g/dL
  TBIL: 0.1 mg/dL
  TC: 67.8 mg/dL
  TG: 47.6 mg/dL
  TP: 5.4 g/dL
  gamma-GTP: 0.6 IU/L
24 h
  TERMINAL_BW: 227 g
  APTT: 20.8 s
  Bas: 0%
  Eos: 1%
  Fbg: 225.8 mg/dL
  Hb: 13.4 g/dL
  Ht: 37.6%
  Lym: 78.2%
  MCH: 22.4 pg
  MCHC: 35.6%
  MCV: 63.1 fL
  Mono: 3.8%
  Neu: 15.6%
  PT: 12.1 s
  Plat: 114.2 x10_4/uL
  RBC: 596.2 x10_4/ul
  Ret: 6.6%
  WBC: 78.3 x10_2/uL
  KIDNEY_L: 1 g
  KIDNEY_R: 1 g
  KIDNEY_TOTAL: 2 g
  LIVER: 11 g
  A/G: 1.5
  ALP: 1146.8 IU/L
  ALT: 33.2 IU/L
  AST: 62.8 IU/L
  BUN: 13.2 mg/dL
  CRE: 0.4 mg/dL
  Ca: 10.5 mg/dL
  Cl: 103.6 meq/L
  DBIL: 0.074 mg/dL
  GLC: 194.2 mg/dL
  IP: 8 mg/dL
  LDH: 176.6 IU/L
  Na: 140.6 meq/L
  PL: 153 mg/dL
  RALB: 3.3 g/dL
  TBIL: 0.1 mg/dL
  TC: 82.8 mg/dL
  TG: 86.8 mg/dL
  TP: 5.6 g/dL
  gamma-GTP: 0.8 IU/L
